Laboratory results from USRE48335E1, “Polymyxin derivatives as antimicrobial compounds” (priority 2014, dated 2020).
≈ marks a conversion by molar mass, not a printed value. Positions of bridges follow the written chain, without caps; N, C: chain ends. Non-standard residues stand in square brackets, D forms with d. Residues, ends and D or L forms follow the SMILES beside them. *: point of attachment. Phenylacetyl(3,4-Cl2) = O=C(Cc1ccc(Cl)c(Cl)c1)*; X36 = O=C(c1cc(C(F)(F)F)cc(C(F)(F)F)c1)*; Benzoyl(4-Me) = Cc1ccc(C(=O)*)cc1; X30 = Cc1cc(C)c(C(=O)*)c(C)c1; X24 = Cc1ccc(C(=O)*)c(C)c1; X29 = Cc1cc(C)cc(C(=O)*)c1; X25 = Cc1cccc(C(=O)*)c1C; Dab = NCC[C@H](N)C(=O)O; X33 = Cc1cccc(C(=O)*)c1; X39 = O=C(Cc1ccccc1Cl)*; X43 = O=C(c1cccc(F)c1)*; Abu = CC[C@H](N)C(=O)O; Dap = NC[C@H](N)C(=O)O; X35 = O=C(Cc1ccccc1F)*

Experiments:
Enterobacter cloacae = tested on: Enterobacter cloacae
In short: (§1)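 Read-out is the MIC, obtained by broth microdilution under CLSI guidance. Lipopeptides (TFA salt form) were diluted in cation-adjusted Mueller-Hinton broth, with polymyxin B sulphate run alongside as control.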

Acinetobacter baumannii = tested on: Acinetobacter baumannii
In short: as §1

Pseudomonas aeruginosa = tested on: Pseudomonas aeruginosa
In short: as §1

Structure (SMILES) | Minimum inhibitory concentration, Ec FADDI-EC001 (Enterobacter cloacae) [µg/mL] | Minimum inhibitory concentration, Ec FADDI-EC003 (Enterobacter cloacae) [µg/mL] | Minimum inhibitory concentration, Ec FADDI-EC006 (Enterobacter cloacae) [µg/mL] | Minimum inhibitory concentration, Ab A ATCC 17978 (Acinetobacter baumannii) [µg/mL] | Minimum inhibitory concentration, Ab ATCC 19606 (Acinetobacter baumannii) [µg/mL] | Minimum inhibitory concentration, Ab FADDI-AB034 (Acinetobacter baumannii) [µg/mL] | Minimum inhibitory concentration, Pa ATCC 27853 (Pseudomonas aeruginosa) [µg/mL] | Minimum inhibitory concentration, Pa FADDI-PA022 (Pseudomonas aeruginosa) [µg/mL] | Minimum inhibitory concentration, Pa FADDI-PA025 (Pseudomonas aeruginosa) [µg/mL]
CC[C@@H]1NC(=O)[C@@H](CC(C)C)NC(=O)[C@H](CCN)NC(=O)[C@@H](NC(=O)[C@H](CN)NC(=O)[C@@H](NC(=O)[C@H](CCN)NC(=O)Cc2ccc(Cl)c(Cl)c2)[C@@H](C)O)CCNC(=O)[C@H]([C@@H](C)O)NC(=O)[C@H](CCN)NC(=O)[C@H](CCN)NC1=O [Compound 81] ({Phenylacetyl(3,4-Cl2)}-[Dab]T[Dap][Dab][Dab][dL][Abu][Dab][Dab]T; lactam 4-C) | 0.25 (≈ 0.213 µM) | <0.125 | 0.25 (≈ 0.213 µM) | 0.5 (≈ 0.426 µM) | 1 (≈ 0.852 µM) | 0.25 (≈ 0.213 µM) | 2 (≈ 1.7 µM) | 4 (≈ 3.41 µM) | 1 (≈ 0.852 µM)
CC[C@@H]1NC(=O)[C@@H](CC(C)C)NC(=O)[C@H](CCN)NC(=O)[C@@H](NC(=O)[C@H](CN)NC(=O)[C@@H](NC(=O)[C@H](CCN)NC(=O)Cc2ccccc2Cl)[C@@H](C)O)CCNC(=O)[C@H]([C@@H](C)O)NC(=O)[C@H](CCN)NC(=O)[C@H](CCN)NC1=O [Compound 84] (X39-[Dab]T[Dap][Dab][Dab][dL][Abu][Dab][Dab]T; lactam 4-C) | <0.125 | 0.25 (≈ 0.219 µM) | 0.5 (≈ 0.439 µM) | 2 (≈ 1.75 µM) | 8 (≈ 7.02 µM) | 2 (≈ 1.75 µM) | 0.5 (≈ 0.439 µM) | 2 (≈ 1.75 µM) | 2 (≈ 1.75 µM)
CC[C@@H]1NC(=O)[C@@H](CC(C)C)NC(=O)[C@H](CCN)NC(=O)[C@@H](NC(=O)[C@H](CN)NC(=O)[C@@H](NC(=O)[C@H](CCN)NC(=O)Cc2ccccc2F)[C@@H](C)O)CCNC(=O)[C@H]([C@@H](C)O)NC(=O)[C@H](CCN)NC(=O)[C@H](CCN)NC1=O [Compound 85] (X35-[Dab]T[Dap][Dab][Dab][dL][Abu][Dab][Dab]T; lactam 4-C) | 0.5 (≈ 0.445 µM) | 1 (≈ 0.89 µM) | 1 (≈ 0.89 µM) | 2 (≈ 1.78 µM) | 4 (≈ 3.56 µM) | 2 (≈ 1.78 µM) | 0.5 (≈ 0.445 µM) | 2 (≈ 1.78 µM) | 2 (≈ 1.78 µM)
CC[C@@H]1NC(=O)[C@@H](CC(C)C)NC(=O)[C@H](CCN)NC(=O)[C@@H](NC(=O)[C@H](CN)NC(=O)[C@@H](NC(=O)[C@H](CCN)NC(=O)c2cccc(F)c2)[C@@H](C)O)CCNC(=O)[C@H]([C@@H](C)O)NC(=O)[C@H](CCN)NC(=O)[C@H](CCN)NC1=O [Compound 86] (X43-[Dab]T[Dap][Dab][Dab][dL][Abu][Dab][Dab]T; lactam 4-C) | 1 (≈ 0.901 µM) | 1 (≈ 0.901 µM) | 1 (≈ 0.901 µM) | 2 (≈ 1.8 µM) | 4 (≈ 3.61 µM) | 1 (≈ 0.901 µM) | 0.5 (≈ 0.451 µM) | 1 (≈ 0.901 µM) | 2 (≈ 1.8 µM)
CC[C@@H]1NC(=O)[C@@H](CC(C)C)NC(=O)[C@H](CCN)NC(=O)[C@@H](NC(=O)[C@H](CN)NC(=O)[C@@H](NC(=O)[C@H](CCN)NC(=O)c2cccc(C)c2)[C@@H](C)O)CCNC(=O)[C@H]([C@@H](C)O)NC(=O)[C@H](CCN)NC(=O)[C@H](CCN)NC1=O [Compound 87] (X33-[Dab]T[Dap][Dab][Dab][dL][Abu][Dab][Dab]T; lactam 4-C) | 2 (≈ 1.81 µM) | 1 (≈ 0.905 µM) | 2 (≈ 1.81 µM) | 1 (≈ 0.905 µM) | 2 (≈ 1.81 µM) | 2 (≈ 1.81 µM) | 0.5 (≈ 0.452 µM) | 1 (≈ 0.905 µM) | 2 (≈ 1.81 µM)
CC[C@@H]1NC(=O)[C@@H](CC(C)C)NC(=O)[C@H](CCN)NC(=O)[C@@H](NC(=O)[C@H](CN)NC(=O)[C@@H](NC(=O)[C@H](CCN)NC(=O)c2ccc(C)cc2C)[C@@H](C)O)CCNC(=O)[C@H]([C@@H](C)O)NC(=O)[C@H](CCN)NC(=O)[C@H](CCN)NC1=O [Compound 89] (X24-[Dab]T[Dap][Dab][Dab][dL][Abu][Dab][Dab]T; lactam 4-C) | <0.125 | <0.125 | 2 (≈ 1.79 µM) | 1 (≈ 0.893 µM) | 4 (≈ 3.57 µM) | 1 (≈ 0.893 µM) | 0.5 (≈ 0.447 µM) | 1 (≈ 0.893 µM) | 4 (≈ 3.57 µM)
CC[C@@H]1NC(=O)[C@@H](CC(C)C)NC(=O)[C@H](CCN)NC(=O)[C@@H](NC(=O)[C@H](CN)NC(=O)[C@@H](NC(=O)[C@H](CCN)NC(=O)c2cccc(C)c2C)[C@@H](C)O)CCNC(=O)[C@H]([C@@H](C)O)NC(=O)[C@H](CCN)NC(=O)[C@H](CCN)NC1=O [Compound 91] (X25-[Dab]T[Dap][Dab][Dab][dL][Abu][Dab][Dab]T; lactam 4-C) | <0.125 | <0.125 | 0.5 (≈ 0.447 µM) | 1 (≈ 0.893 µM) | 4 (≈ 3.57 µM) | 2 (≈ 1.79 µM) | 0.5 (≈ 0.447 µM) | 2 (≈ 1.79 µM) | 4 (≈ 3.57 µM)
CC[C@@H]1NC(=O)[C@@H](CC(C)C)NC(=O)[C@H](CCN)NC(=O)[C@@H](NC(=O)[C@H](CN)NC(=O)[C@@H](NC(=O)[C@H](CCN)NC(=O)c2c(C)cc(C)cc2C)[C@@H](C)O)CCNC(=O)[C@H]([C@@H](C)O)NC(=O)[C@H](CCN)NC(=O)[C@H](CCN)NC1=O [Compound 92] (X30-[Dab]T[Dap][Dab][Dab][dL][Abu][Dab][Dab]T; lactam 4-C) | <0.125 | 0.25 (≈ 0.221 µM) | 2 (≈ 1.76 µM) | 0.5 (≈ 0.441 µM) | 4 (≈ 3.53 µM) | 4 (≈ 3.53 µM) | 0.5 (≈ 0.441 µM) | 0.5 (≈ 0.441 µM) | 4 (≈ 3.53 µM)
CC[C@@H]1NC(=O)[C@@H](CC(C)C)NC(=O)[C@H](CCN)NC(=O)[C@@H](NC(=O)[C@H](CN)NC(=O)[C@@H](NC(=O)[C@H](CCN)NC(=O)c2cc(C)cc(C)c2)[C@@H](C)O)CCNC(=O)[C@H]([C@@H](C)O)NC(=O)[C@H](CCN)NC(=O)[C@H](CCN)NC1=O [Compound 93] (X29-[Dab]T[Dap][Dab][Dab][dL][Abu][Dab][Dab]T; lactam 4-C) | 0.25 (≈ 0.223 µM) | 1 (≈ 0.893 µM) | 4 (≈ 3.57 µM) | 0.5 (≈ 0.447 µM) | 1 (≈ 0.893 µM) | 0.5 (≈ 0.447 µM) | 2 (≈ 1.79 µM) | 4 (≈ 3.57 µM) | 2 (≈ 1.79 µM)
CC[C@@H]1NC(=O)[C@@H](CC(C)C)NC(=O)[C@H](CCN)NC(=O)[C@@H](NC(=O)[C@H](CN)NC(=O)[C@@H](NC(=O)[C@H](CCN)NC(=O)c2cc(C(F)(F)F)cc(C(F)(F)F)c2)[C@@H](C)O)CCNC(=O)[C@H]([C@@H](C)O)NC(=O)[C@H](CCN)NC(=O)[C@H](CCN)NC1=O [Compound 97] (X36-[Dab]T[Dap][Dab][Dab][dL][Abu][Dab][Dab]T; lactam 4-C) | 0.5 (≈ 0.407 µM) | 0.25 (≈ 0.204 µM) | 0.5 (≈ 0.407 µM) | <0.125 | 0.5 (≈ 0.407 µM) | 0.25 (≈ 0.204 µM) | 0.5 (≈ 0.407 µM) | 0.5 (≈ 0.407 µM) | 1 (≈ 0.815 µM)
CC[C@@H]1NC(=O)[C@@H](CC(C)C)NC(=O)[C@H](CCN)NC(=O)[C@@H](NC(=O)[C@H](CN)NC(=O)[C@@H](NC(=O)[C@H](CCN)NC(=O)c2ccc(C)cc2)[C@@H](C)O)CCNC(=O)[C@H]([C@@H](C)O)NC(=O)[C@H](CCN)NC(=O)[C@H](CCN)NC1=O [Compound 98] ({Benzoyl(4-Me)}-[Dab]T[Dap][Dab][Dab][dL][Abu][Dab][Dab]T; lactam 4-C) | 1 (≈ 0.905 µM) | 0.25 (≈ 0.226 µM) | 2 (≈ 1.81 µM) | 2 (≈ 1.81 µM) | 2 (≈ 1.81 µM) | 2 (≈ 1.81 µM) | 0.5 (≈ 0.452 µM) | 0.5 (≈ 0.452 µM) | 2 (≈ 1.81 µM)
